In publication PMC9313812, “The Pseudo‐Natural Product Rhonin Targets RHOGDI” (Angewandte Chemie (International Ed. in English), 2022):

Experiments:
[1] = system: HEK293T cells; experiment: Cell fractionation: distribution of RHO GTPases; assay type: cell-based; settings: 10 μM
Procedure: centrifugation for 20 min in 20000 x g, supernatants were collected and loaded on a Ni-NTA column (Qiagen, Hilden, Germany). The protein was eluted by passing a buffer containing 300 mM imidazole into the Ni-NTA column. The eluted solution was further purified on an analytical Superdex 75 column (10/300 GL, GE-Healthcare, Uppsala, Sweden) using 20 mM HEPES-NaOH pH 7.4, 150 mM NaCl, 3 mM DTT, 5 mM MgCl2 and 0.5% (w/v) Na-cholate as buffer system. Non-prenylated RAC1 and human RHOGDI1 were prepared from E. coli as a GST recombinant protein as described previously.6
For expression of GST-PDEδ, E. coli RosettaTM2 cells transformed with PDE6D expression plasmid (pGex4T5) were inoculated in TB medium containing 100 μg/ml ampicillin and 30 μg/ml chloramphenicol to a total volume of 10 L. The protein expression in E. coli was induced with 0.2 mM IPTG at OD600 = 1.33. Cells were cultivated overnight at 18 ° C with shaking.
Cells then were pelleted by centrifugation at 4000xg for 20 min at 4 ° C and stored at -20 ° C. […]
NIH/3T3 cells were seeded in a 96 plate (10,000 cell per well/ plate name: Essen Bioscience NO 4379). […] Cell migration was monitored using IncuCyte ZOOM for a period of 48 h. The images were analyzed by the Incucyte Scratch Wound Analysis Software. […]

[2] = Parallel artificial membrane permeability assay (PAMPA); assay type: in vitro ADME; settings: initial 500 µM in donor, 20 h
Procedure: 500 µM final compound concentrations. The kinetic solubility of the compound solutions in HEPES buffer pH 7.4 were then compared to a solution in the organic solvent (ACN) after vigorous shaking on an orbital shaker at room temperature for 90 min. Therefore, the spectrum 250 -500 nm was recorded using the Spectramax plate reader. Precipitated material was removed by filtration prior to analysis. Each sample was tested in triplicate.
Aqueous solubility was also determined using a turbidimetric assay. DMSO stock solutions were diluted in DMSO to produce a range of concentrations. These were then added to PBS buffer pH7.4 (final test compound concentrations: 1 µM, 3 µM, 10 µM, 30 µM, 100 µM, 1% final DMSO concentration, 7 replicates per concentration). After 2 h incubation period at room temperature, the absorbance at 620 nm was read for each concentration and each replicate using a Spectramax plate reader.
Permeability through artificial membranes assay (PAMPA)
Permeability through artificial membranes (phospholipid/cholesterol in dodecane) was assessed at an initial compound concentration of 500 µM in the donor compartment. Absorption of the receiver wells was determined by spectrophotometrical measurement using a Spectramax absorbance plate reader after 20 h of incubation. Permeation was calculated by normalization of compound flux across a blank filter. […]

COC(=O)C1(C(CC(=O)c2cccnc2)c2ccccc2)N=C(c2ccc(Br)cc2)C2C(=O)N(C)C(=O)C21 (centres unmarked) [7l]
Subcellular localization of membrane-bound RHO GTPases (in words) [1]: from the plasma membrane to the endoplasmic reticulum (ER) membrane
permeability, flux in PAMPA [2]: 41.1%
